Values after ≈ are worked out from the molar mass of the structure shown.
Key:
Aspergillus fumigatus [1] = experiment: Antifungal activity against Aspergillus fumigatus after 48 hrs by broth dilution technique; type: functional
[2] = tested on: Trichophyton mentagrophytes; experiment: Antifungal activity against Trichophyton mentagrophytes after 48 hrs by broth dilution technique; type: functional
Aspergillus fumigatus [3] = experiment: Antifungal activity against Aspergillus fumigatus after 3 to 4 days by disc diffusion method; type: functional
Staphylococcus aureus [4] = experiment: Antibacterial activity against Staphylococcus aureus ATCC 25923 after 24 hrs by broth dilution technique; type: functional; settings: ATCC-25923, 24 h
[5] = tested on: Trichophyton mentagrophytes; experiment: Antifungal activity against Trichophyton mentagrophytes after 3 to 4 days by disc diffusion method; type: functional
Candida albicans [6] = experiment: Antifungal activity against Candida albicans after 3 to 4 days by disc diffusion method; type: functional
Staphylococcus aureus [7] = experiment: Antibacterial activity against Staphylococcus aureus ATCC 25923 after 24 hrs by disc diffusion method; type: functional
Streptococcus pyogenes [8] = experiment: Antibacterial activity against Streptococcus pyogenes clinical isolate after 24 hrs by disc diffusion method; type: functional
Candida albicans [9] = experiment: Antifungal activity against Candida albicans after 48 hrs by broth dilution technique; type: functional
Klebsiella pneumoniae [10] = experiment: Antibacterial activity against Klebsiella pneumoniae clinical isolate after 24 hrs by disc diffusion method; type: functional
Pseudomonas aeruginosa [11] = experiment: Antibacterial activity against Pseudomonas aeruginosa ATCC 27853 after 24 hrs by disc diffusion method
Klebsiella pneumoniae [12] = experiment: Antibacterial activity against Klebsiella pneumoniae clinical isolate after 24 hrs by broth dilution technique; type: functional
Streptococcus pyogenes [13] = experiment: Antibacterial activity against Streptococcus pyogenes clinical isolate after 24 hrs by broth dilution technique; type: functional
Escherichia coli [14] = experiment: Antibacterial activity against Escherichia coli ATCC 25922 after 24 hrs by broth dilution technique; type: functional; settings: ATCC-25922, 24 h
Talaromyces marneffei [15] = experiment: Antifungal activity against Penicillium marneffei after 3 to 4 days by disc diffusion method; type: functional
Talaromyces marneffei [16] = experiment: Antifungal activity against Penicillium marneffei after 48 hrs by broth dilution technique; type: functional
Escherichia coli [17] = experiment: Antibacterial activity against Escherichia coli ATCC 25922 after 24 hrs by disc diffusion method; type: functional
Pseudomonas aeruginosa [18] = experiment: Antibacterial activity against Pseudomonas aeruginosa ATCC 27853 after 24 hrs by broth dilution technique; settings: ATCC-27853, 24 h

Row | SMILES | MIC (Aspergillus fumigatus [1]) [mg/L] | MIC [2] [mg/L] | MIC (Staphylococcus aureus [4]) [mg/L] | MIC (Candida albicans [9]) [mg/L] | MIC (Escherichia coli [14]) [mg/L] | MIC (Pseudomonas aeruginosa [18]) [mg/L] | MFC (Aspergillus fumigatus [1]) [mg/L] | MFC [2] [mg/L] | diameter of the inhibition zone (DIZ) (Aspergillus fumigatus [3]) [mm] | diameter of the inhibition zone (DIZ) [5] [mm] | diameter of the inhibition zone (DIZ) (Candida albicans [6]) [mm] | diameter of the inhibition zone (DIZ) (Staphylococcus aureus [7]) [mm] | diameter of the inhibition zone (DIZ) (Streptococcus pyogenes [8]) [mm] | MFC (Candida albicans [9]) [mg/L] | diameter of the inhibition zone (DIZ) (Klebsiella pneumoniae [10]) [mm] | diameter of the inhibition zone (DIZ) (Pseudomonas aeruginosa [11]) [mm] | MBC (Escherichia coli [14]) [mg/L] | diameter of the inhibition zone (DIZ) (Talaromyces marneffei [15]) [mm] | diameter of the inhibition zone (DIZ) (Escherichia coli [17]) [mm] | MBC (Pseudomonas aeruginosa [18]) [mg/L] | also measured
1 | CCCCCCCCCCCCCCCCCC(=O)N(C(=O)NC1CCCCC1)C1CCCCC1 | 50 (≈ 102 µM) | 50 (≈ 102 µM) | 50 (≈ 102 µM) | 25 (≈ 50.9 µM) | 50 (≈ 102 µM) | 25 (≈ 50.9 µM) | 100 (≈ 204 µM) | 100 (≈ 204 µM) | 13.6 | 12.2 | 15.1 | 11.3 | 11.5 | 50 (≈ 102 µM) | 12.7 | 12.2 | 100 (≈ 204 µM) | 10.5 | 13.3 | 100 (≈ 204 µM) | MBC (Staphylococcus aureus [4]): 100 mg/L (≈ 204 µM); MBC (Klebsiella pneumoniae [12]): 100 mg/L (≈ 204 µM); MIC (Klebsiella pneumoniae [12]): 100 mg/L (≈ 204 µM); MBC (Streptococcus pyogenes [13]): 100 mg/L (≈ 204 µM); MIC (Streptococcus pyogenes [13]): 50 mg/L (≈ 102 µM); MFC (Talaromyces marneffei [16]): 100 mg/L (≈ 204 µM); MIC (Talaromyces marneffei [16]): 50 mg/L (≈ 102 µM)
2 | C=CCCCCCCCCC(=O)N(C(=O)NC1CCCCC1)C1CCCCC1 |  |  |  | 50 (≈ 128 µM) | 100 (≈ 256 µM) | 50 (≈ 128 µM) |  |  |  |  | 12.1 |  |  | 100 (≈ 256 µM) |  | 12.1 | 100 (≈ 256 µM) |  | 10.6 | 100 (≈ 256 µM) | 
3 | CCCCCCCC/C=C\CCCCCCCC(=O)N(C(=O)NC1CCCCC1)C1CCCCC1 | 50 (≈ 102 µM) |  |  | 50 (≈ 102 µM) | 100 (≈ 205 µM) | 100 (≈ 205 µM) | 100 (≈ 205 µM) |  | 9.9 |  | 13.9 | 13.4 | 13.5 | 100 (≈ 205 µM) | 12.8 | 17.2 | 100 (≈ 205 µM) |  | 15.4 | 100 (≈ 205 µM) | 

Second part, led by results:

Row | MIC (Aspergillus fumigatus [1]) [mg/L] | MIC [2] [mg/L] | MIC (Staphylococcus aureus [4]) [mg/L] | MIC (Candida albicans [9]) [mg/L] | MIC (Escherichia coli [14]) [mg/L] | MIC (Pseudomonas aeruginosa [18]) [mg/L] | SMILES | MFC (Aspergillus fumigatus [1]) [mg/L] | MFC [2] [mg/L] | diameter of the inhibition zone (DIZ) (Aspergillus fumigatus [3]) [mm] | diameter of the inhibition zone (DIZ) [5] [mm] | diameter of the inhibition zone (DIZ) (Candida albicans [6]) [mm] | diameter of the inhibition zone (DIZ) (Staphylococcus aureus [7]) [mm] | diameter of the inhibition zone (DIZ) (Streptococcus pyogenes [8]) [mm] | MFC (Candida albicans [9]) [mg/L] | diameter of the inhibition zone (DIZ) (Klebsiella pneumoniae [10]) [mm] | diameter of the inhibition zone (DIZ) (Pseudomonas aeruginosa [11]) [mm] | MBC (Escherichia coli [14]) [mg/L] | diameter of the inhibition zone (DIZ) (Talaromyces marneffei [15]) [mm] | diameter of the inhibition zone (DIZ) (Escherichia coli [17]) [mm] | MBC (Pseudomonas aeruginosa [18]) [mg/L] | also measured
4 |  |  | 100 (≈ 363 µM) | 50 (≈ 182 µM) |  |  | C=CCCCCCCCCC(=O)Nc1ccccc1O |  |  | 9.2 | 8.3 | 12.5 | 10.9 | 11.1 | 100 (≈ 363 µM) |  | 14.3 |  | 8.9 | 12.7 |  | MBC (Klebsiella pneumoniae [12]): 100 mg/L (≈ 363 µM); MIC (Klebsiella pneumoniae [12]): 100 mg/L (≈ 363 µM)
5 | 25 (≈ 66.9 µM) | 50 (≈ 134 µM) | 100 (≈ 268 µM) | 50 (≈ 134 µM) | 100 (≈ 268 µM) | 100 (≈ 268 µM) | CCCCCCCC/C=C\CCCCCCCC(=O)Nc1ccccc1O | 100 (≈ 268 µM) | 100 (≈ 268 µM) | 11.7 | 8.9 | 15.3 | 11.1 | 11.4 | 50 (≈ 134 µM) | 10.8 | 15.2 | 100 (≈ 268 µM) | 9.2 | 13.2 | 100 (≈ 268 µM) | MBC (Staphylococcus aureus [4]): 100 mg/L (≈ 268 µM); MBC (Streptococcus pyogenes [13]): 100 mg/L (≈ 268 µM); MIC (Streptococcus pyogenes [13]): 50 mg/L (≈ 134 µM); MFC (Talaromyces marneffei [16]): 100 mg/L (≈ 268 µM); MIC (Talaromyces marneffei [16]): 50 mg/L (≈ 134 µM)

— ChEMBL document CHEMBL1759880, “A facile, one-pot synthesis, characterization and antimicrobial activity of o-hydroxy anilide derivatives and 1-substituted-1,3-dicyclohexylurea analogs of long chain carboxylic acids” (2011)
